In patent publication US20230058623A1, “NOVEL HETEROARYL-TRIAZOLE COMPOUNDS AS PESTICIDES” (Bayer Aktiengesellschaft, priority 2019, published 2023):

What was measured:
Type in all cases: in vivo
[1] = test system: adult engorged female ticks (Rhipicephalus microplus); assay: Rhipicephalus (Boophilus) microplus injection test; conditions: 168 h, application rate 4 μg/tick, egg deposition after 7 days, read-out: activity (efficacy: infertile eggs)
Summary of the method: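 Abdominal injection, 1 μL compound/DMSO, n=5 engorged adult females; climate-chamber incubation. Readout d7: fertile egg laying; doubtful eggs held to hatch (~42 d). % efficacy = infertile eggs (100% all infertile).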

[2] = test system: adult cat fleas (Ctenocephalides felis); assay: Ctenocephalides felis in-vitro contact test, adult cat flea; conditions: application rate 5 μg/cm^2 (=500 g/ha), after 48 hours, read-out: activity (efficacy: fleas dead or moribund)
Summary of the method: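 After 48 h of room-temperature exposure in tubes whose walls carried dried compound residue (5 μg/cm^2, from 900 ppm acetone solution), adult cat fleas (5-10 per tube) were heat-challenged at 45-50° C up to 5 min. Fleas unable to climb away were counted dead or moribund, expressed as % efficacy.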

[3] = test system: adult unfed cat fleas (Ctenocephalides felis); assay: Ctenocephalides felis oral test; conditions: 48 h, read-out: activity (mortality)
Summary of the method: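 About 20 adult unfed cat fleas fed through parafilm on citrated cattle blood containing compound (from a DMSO concentrate). Blood held at 37° C, fleas at room temperature. Mortality in % scored after 2 days.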

[4] = test system: larvae of the banded cucumber beetle (Diabrotica balteata); assay: Diabrotica balteata spray test; conditions: 168 h, after 7 days, wheat seeds, read-out: activity (efficacy: seedlings grown); for pest or weed control at 32 µg/disc, 100 g/ha: application rate 100 g/ha (=32 μg/well)
Summary of the method: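 Efficacy (%) read 7 days after infesting treated seedlings with 10-20 banded cucumber beetle larvae, 100% meaning growth as in uninfected untreated control and 0% no growth. Test solutions in water containing 1000 ppm emulsifier were sprayed onto wheat seeds germinated for 1 day on agar.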

[5] = test system: green peach aphid (Myzus persicae); assay: Myzus persicae oral test; conditions: 120 h, read-out: activity (mortality)
Summary of the method: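 Readout: % mortality at day 5, where 100% = all aphids dead and 0% = none dead. Feeding via parafilm membrane over compound in IPL41 medium (33%+15% sugar); mixed-age population. Stock in acetone (1:100 w/w), water-diluted.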

[6] = test system: green peach aphid (Myzus persicae); assay: Myzus persicae spray test; conditions: foliar, 120 h, after 5 days, Chinese cabbage leaf disks; for mortality at 100 g/ha: application rate 100 g/ha, read-out: activity (mortality)
Summary of the method: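 Percent kill was recorded 5 days after spraying. Test solutions, prepared with solvent and diluted in 1000 ppm emulsifier water, were applied to Brassica pekinensis leaf disks carrying mixed-instar green peach aphids.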

[7] = test system: fall armyworm larvae (Spodoptera frugiperda); assay: Spodoptera frugiperda spray test; conditions: 168 h, application rate 100 g/ha, after 7 days, maize leaf sections
Summary of the method: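 Read-out: % larval mortality at day 7, where 100% means all killed and 0% none killed. Compound diluted in water with 1000 ppm emulsifier, sprayed onto Zea mays leaf sections; dried sections then infested with S. frugiperda larvae.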

[8] = test system: adult mosquitoes Aedes aegypti strain MONHEIM; assay: Aedes aegypti test (AEDSAE surface treatment & contact assay); conditions: 24 hours after contact, read-out: efficacy (mortality); for mortality at 20 mg/m2: surface concentration 20 mg/m^2, exposure 30 minutes; for mortality at 4 mg/m2: surface concentration 4 mg/m^2, exposure 30 minutes
Summary of the method: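 Compound in acetone (2 mg/ml) with 2000 ppm RME dried onto glazed tile; adults exposed to the treated surface for 30 min. Percent mortality scored 24 h after contact.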

[9] = test system: larvae of the southern green stink bug (Nezara viridula); assay: Nezara viridula spray test; conditions: 96 h, after 4 days, barley plants; for mortality at 100 g/ha: application rate 100 g/ha; for mortality at 500 g/ha: application rate 500 g/ha, read-out: activity (mortality)
Summary of the method: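 Barley plants sprayed with the active compound in emulsifier-containing water, then infested with stink bug larvae. Mortality scored in % after 4 days, with 100% meaning all insects killed.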

Row | Compound | pest or weed control at 0.004 mg [1] [%] | pest or weed control at 5 µg/cm2 [2] [%] | mortality at 100 ppm [3] [%] | pest or weed control at 32 µg/disc, 100 g/ha [4] [%] | mortality at 4 ppm [5] [%] | mortality at 100 g/ha [6] [%] | mortality at 100 g/ha [7] [%] | mortality at 20 mg/m2 [8] [%] | pest or weed control at 160 µg/disc, 500 g/ha ([4]; application rate 500 g/ha (=160 μg/well)) [%] | mortality at 500 g/ha ([6]; application rate 500 g/ha) [%] | mortality at 100 g/ha [9] [%] | mortality at 500 g/ha [9] [%] | mortality at 4 mg/m2 [8] [%]
1 | Cc1nc([C@H](C)NC(=O)c2cc(C(F)(F)F)cc(C(F)(F)F)c2)n(-c2ncc(C(=O)N3CCOCC3)s2)n1 [Example I-4] | 100 | 80 | 100 | 100 | 100 | 90 | 100 | 80 to 100 |  |  |  |  | 
2 | C[C@H](NC(=O)c1cc(C(F)(F)F)cc(C(F)(F)F)c1)c1ncnn1-c1ccc(C(=O)N2CCOCC2)cn1 [Example I-2] | 100 | 100 |  | 100 | 100 | 100 | 100 | 80 to 100 | 100 | 100 | 100 | 100 | 80 to 100
3 | C[C@@H]1CN(C(=O)c2ccc(-n3ncnc3[C@H](C)NC(=O)c3cc(C(F)(F)F)cc(C(F)(F)F)c3)nc2)CCO1 [Example I-69] |  | 100 |  | 100 | 100 | 90 | 100 | 80 to 100 |  |  |  |  | 
4 | Cc1nc([C@H](C)NC(=O)c2cc(Cl)cc(C(F)(F)F)c2)n(-c2ccc(C(=O)N3CC(C)OC(C)C3)cn2)n1 (stereo partly shown) [Example I-29] | 100 | 100 | 100 | 100 | 100 | 90 | 83 | 80 to 100 |  |  | 90 |  | 80 to 100
5 | CC1CN(C(=O)c2ccc(-n3ncnc3[C@H](C)NC(=O)c3cc(C(F)(F)F)cc(C(F)(F)F)c3)nc2)CC(C)O1 (stereo partly shown) [Example I-5] | 100 | 100 | 100 |  | 100 | 100 | 100 | 80 to 100 |  |  |  |  | 80 to 100
6 | C[C@H](NC(=O)c1cc(C(F)(F)F)cc(C(F)(F)F)c1)c1ncnn1-c1ccc(C(=O)N2C[C@H](C)O[C@@H](C)C2)cn1 [Example I-94] | 100 | 100 | 100 | 100 |  | 100 | 100 | 80 to 100 |  |  | 100 |  | 80 to 100
7 | C[C@@H]1CN(C(=O)c2ccc(-n3ncnc3[C@H](C)NC(=O)c3cc(Cl)cc(C(F)(F)F)c3)nc2)C[C@H](C)O1 [Example I-31] | 100 | 100 | 100 | 100 | 100 | 100 | 100 | 80 to 100 |  |  | 90 |  | 80 to 100
8 | C[C@@H]1CN(C(=O)c2ccc(-n3ncnc3[C@H](C)NC(=O)c3cc(C(F)(F)F)cc(C(F)(F)F)c3)nc2)C[C@H](C)O1 [Example I-50] | 100 | 100 | 100 | 100 | 100 | 90 | 100 | 80 to 100 |  |  | 100 |  | 80 to 100
9 | C[C@H](NC(=O)c1cc(Cl)cc(C(F)(F)F)c1)c1ncnn1-c1ccc(C(=O)N2CCSCC2)cn1 [Example I-36] | 100 | 100 | 100 | 80 | 100 | 100 |  | 80 to 100 |  |  | 100 |  | 80 to 100
10 | C[C@H](NC(=O)c1cc(C(F)(F)F)cc(C(F)(F)F)c1)c1ncnn1-c1ccc(C(=O)N2CCCC2)cn1 [Example I-11] | 100 | 100 |  | 80 | 100 | 90 | 100 | 80 to 100 |  |  | 100 |  | 80 to 100
11 | C[C@H](NC(=O)c1cc(C(F)(F)F)cc(C(F)(F)F)c1)c1ncnn1-c1ccc(C(=O)N2CCS(=O)(=O)CC2)cn1 [Example I-75] |  | 100 |  | 100 | 100 | 100 | 100 | 80 to 100 |  |  |  | 100 | 80 to 100
12 | Cc1nc([C@H](C)NC(=O)c2cc(C(F)(F)F)cc(C(F)(F)F)c2)n(-c2ccc(C(=O)N3CCOCC3)cn2)n1 [Example I-9, N-[(1S)-1-{3-methyl-1-[5-(morpholin-4-ylcarbonyl)pyridin-2-yl]-1H-1,2,4-triazol-5-yl}ethyl]-3,5-bis(trifluoromethyl)benzamide] | 100 | 100 |  | 100 | 100 | 100 | 100 | 80 to 100 |  |  | 100 |  | 80 to 100
13 | C[C@@H]1CN(C(=O)c2ccc(-n3ncnc3[C@H](C)NC(=O)c3cc(OC(F)(F)F)cc(C4CC4)c3)nc2)C[C@H](C)O1 [Example I-114] | 100 | 100 | 100 | 100 | 100 | 100 | 100 | 80 to 100 |  |  |  |  | 
14 | COC1CN(C(=O)c2ccc(-n3ncnc3[C@H](C)NC(=O)c3cc(C(F)(F)F)cc(C(F)(F)F)c3)nc2)C1 [Example I-15] | 100 | 100 | 100 | 80 | 100 | 90 | 100 | 80 to 100 |  |  |  |  | 
15 | COC1CCCN(C(=O)c2ccc(-n3ncnc3[C@H](C)NC(=O)c3cc(C(F)(F)F)cc(C(F)(F)F)c3)nc2)C1 (stereo partly shown) [Example I-8] | 100 | 100 | 100 |  | 100 | 90 | 100 | 80 to 100 |  |  | 90 |  | 
16 | Cc1nc([C@H](C)NC(=O)c2cc(C(F)(F)F)cc(C(F)(F)F)c2)n(-c2ccc(C(=O)N3CCS(=O)(=O)CC3)cn2)n1 [Example I-76] |  | 100 |  |  | 100 | 90 | 100 | 80 to 100 |  |  |  | 100 | 80 to 100
17 | C[C@H](NC(=O)c1cc(Cl)cc(C(F)(F)F)c1)c1ncnn1-c1ccc(C(=O)N2CCS(=O)(=O)CC2)cn1 [Example I-35] | 100 | 100 | 100 | 100 | 100 | 90 |  | 80 to 100 |  |  | 100 |  | 80 to 100
